Data as given in patent US10357537B2, “Cyclotides as immunosuppressive agents” (priority 2011, dated 2019).
Bridge positions count the residues as written; N and C are the ends. Peptide text beside a SMILES is read from it.

Tested on: IL-2 mRNA in PHA-L-activated cells
Test: IL-2 gene expression, real-time PCR
Format: cell-based, human
Details: 4 hours, vs control
Description: C. IL-2 gene expression analysis using RT-PCR. […] RT-PCR was carried out using specific primers for indicated gene. The data were normalized to the Ct value of the internal housekeeping gene 18s rRNA and the relative mRNA level in the untreated stimulated group was used as calibrator. Data were expressed as mean+SD of three independent experiments.
Total RNA was extracted from controls or treated cells (2×10^6) frozen at −80° C. RNA-purification was performed according to the manufacturer's instructions for the RNeasy mini and Rnase-Free Dnase Set digestion kits (Qiagen, Hilden, Germany). The quantity and purity of extracted RNA was measured by spectrophotometry (Nanodrop, Peqlab, Erlangen, Germany) and purified RNA was reverse transcribed using the RT^2 First Stand Kit (Qiagen, Hilden, Germany).
RT-PCR reactions were carried out on a BioRad MyiQ (BioRad, Munich, Germany) in a final volume of 25 μL using RT^2 qPCR Primer Assay (for IL-2) and SYBR® Green qPCR Mastermix (both from Qiagen, Hilden, Germany). […] Results were expressed as relative gene expression of IL-2 and were determined by comparative Ct method. […]
To determine whether cyclotides have an impact at the gene expression level of the, il-2 gene expression (as control we used 18s rRNA) in PBMC cells was investigated by quantitative real-time PCR (FIG. 12C).

CC(C)C[C@@H]1NC(=O)CNC(=O)[C@H](CC(N)=O)NC(=O)[C@H](CCCNC(=N)N)NC(=O)[C@H]([C@@H](C)O)NC(=O)[C@@H]2CSSC[C@@H]3NC(=O)[C@H]([C@@H](C)O)NC(=O)CNC(=O)CNC(=O)[C@H](C(C)C)NC(=O)[C@@H]4CSSC[C@H](NC(=O)[C@H](CCCCN)NC(=O)[C@H](CSSC[C@H](NC(=O)[C@H](C(C)C)NC(=O)[C@@H]5CCCN5C1=O)C(=O)NCC(=O)N[C@@H](CCC(=O)O)C(=O)N[C@@H]([C@@H](C)O)C(=O)N4)NC(=O)CNC(=O)[C@@H]1CCCN1C(=O)[C@H]([C@@H](C)O)NC(=O)[C@H](CC(N)=O)NC3=O)C(=O)N[C@@H](CO)C(=O)N[C@@H](Cc1c[nH]c3ccccc13)C(=O)N1CCC[C@H]1C(=O)N[C@@H](C(C)C)C(=O)N2 [Kalata T20K] (cyclo(CGETCVGGTCNTPGCKCSWPVCTRNGLPV); disulfide 1-15, 5-17, 10-22 (inferred); ring closure inferred)
level of IL-2 mRNA: clearly decreases the level of IL-2 mRNA
